Like-named read-outs stand apart in the source and are kept apart here.
Tests used:
Acute toxicity in mice = assay: Acute toxicity in mice; parameters: species or system Swiss NMRI mice; conditions: mouse, in vivo; for LD50 at 240 h: 10 days observation, read-out: DL50
Description: Swiss NMRI mice having an average weight of 20±2 g, subdivided in groups of 10 animals (5 females and 5 males) were used for each dose and for each method of administration.
The methods of administration were: oral by means of gastric probe, intramuscular and endovenous into the caudal vein.
(§1) The observation time after administration was 10 days.

[1] = tested on: granuloma from cotton pellets; assay: Anti-inflammatory activity, granuloma induced by cotton pellets; format: in vivo, female albino rats of the Sprague Dawley strain; conditions: 4 days; for Average dry weight of the granuloma (average ± s.e.): in mg (unit assumed)
Experimental: The test consists of evaluating the capacity of the substances under examination to inhibit the formation of granuloma following the subcutaneous implantation of extraneous bodies (in this case, cotton pellets). […] One group of animals was used as a control. […] After the subcutaneous implant of 2 cotton pellets each having a weight of 20 mg into the dorsal region, the animals were administered daily, for 4 consecutive days, with the substances under examination in the doses given above.

Acute toxicity in rats = assay: Acute toxicity in rats; parameters: species or system Sprague Dawley albino rats; conditions: rat, in vivo; for LD50 at 240 h: 10 days observation, read-out: DL50
Description: Sprague Dawley albino rats having an average weight of about 150 g, subdivided into groups of 10 animals (5 males and 5 females) were used for each dose and for each method of administration.
The methods of administration were: oral by means of a gastric probe, intramuscular and endovenous into the caudal vein.
as §1

mice-embryo fibroblast [2] = assay: Stimulation of the production of tissue-bound GAG in mice-embryo fibroblast cultures, uptake of ^35 S; format: cell-based, mice (strain C57 BL/6 stCrl); conditions: Mus musculus, Fibroblast, 24 h, read-out: Δ % over non-treated controls, tissue-bound GAG
Experimental: (§2) For this purpose, primary cultures of mice-embryo fibroblasts (strain C57 BL/6 stCrl) were prepared by mechanical and enzymatic dissociation (in Trypsin Versene mixture-Microbiological Associates) of the embryos taken from the mother on the 18th day of pregnancy. The culture medium is the Eagle medium modified by Dulbecco and supplemented with 15% of calf foetus serum. The incubation atmosphere consists of 5% of carbon dioxide in air at 37° C. 24 hours after innoculation, the medium is replaced by a new medium containing the drug under examination and the radioactive precursor (Na2^35 SO4) for the measurement of the synthesis both of soluble and tissue-bound GAG; the culture is left to incubate for a further 24 hours and then the culture medium (containing the soluble GAG) and fibroblasts (containing the tissue-bound GAG) are separated.
(§3) The soluble GAG are isolated from the culture medium by precipitation with a solution of 5% trichloroacetic acid in ice-water while the fibroblast residues, containing the tissue-bound GAG, after repeated washings with physiological solutions, are dissolved in [sequence] or VERSENE.
(§4) The quantity of ^35 S incorporated both in the soluble GAG and in the tissue-bound GAG are evaluated by the usual scintillation methods and expressed in cpm (counts per minute).
(§5) The tests were carried out five times for each sample in order to allow the results to be evaluated statistically.

mice-embryo fibroblast [3] = assay: Stimulation of the production of soluble GAG in mice-embryo fibroblast cultures, uptake of ^35 S; format: cell-based, mice (strain C57 BL/6 stCrl); conditions: Mus musculus, Fibroblast, 24 h, read-out: Δ % over non-treated controls, soluble GAG
Experimental: as §2, §3, §4, §5

physchem = conditions: solid storage, Titre of glucosamine
[4] = im, intramuscular, max. dose 3000 mg/kg
[5] = iv, endovenous, max. dose 1500 mg/kg

In the case of N[C@H]1C(O)O[C@H](CO)[C@@H](O)[C@@H]1O.O=S(=O)(O)O (stereo partly shown) [Glucosamine sulphate, glucosamine sulphate], the LD50 at 240 h (Acute toxicity in mice; im, intramuscular) is reported as greater than 3000 mg/kg, the mortality at 240 h (Acute toxicity in mice; [4]) is reported as 0% and the LD50 at 240 h (Acute toxicity in mice; iv, endovenous) is reported as greater than 1500 mg/kg. The mortality at 240 h (Acute toxicity in mice; [5]) was 0%, the LD50 at 240 h (Acute toxicity in mice; oral) was greater than 5000 mg/kg and the mortality at 240 h (Acute toxicity in mice; oral, max. dose 5000 mg/kg) was 0%. For the same molecule, the “% Inhibition of granuloma” value ([1]; 300 mg/kg/os daily) was 40.9%, the “Average dry weight of the granuloma (average ± s.e.)” value ([1]; 300 mg/kg/os daily) was 91.2 ± 10.8 and the “% Inhibition of granuloma” value ([1]; 600 mg/kg/os daily) was 54.1%. The “Average dry weight of the granuloma (average ± s.e.)” value ([1]; 600 mg/kg/os daily) was 70.7 ± 7.9, the Appearance (15° C., 30% R.H., 0 days) was 1 and the Titre of glucosamine (15° C., 30% R.H., 0 days) was 98.7%. For the same molecule, the Appearance (15° C., 30% R.H., 7 days) was 1, the Appearance (15° C., 30% R.H., 15 days) was 1 and the Appearance (15° C., 30% R.H., 30 days) was 1. For the same molecule, the Appearance (15° C., 30% R.H., 60 days) was 1, the Appearance (15° C., 30% R.H., 120 days) was 2 and the Appearance (15° C., 30% R.H., 360 days) was 2-3. It also gave an Appearance (15° C., 45% R.H., 0 days) of 1, an Appearance (15° C., 45% R.H., 7 days) of 1 and an Appearance (15° C., 45% R.H., 15 days) of 1. It also gave an Appearance (15° C., 45% R.H., 30 days) of 1, an Appearance (15° C., 45% R.H., 60 days) of 2 and an Appearance (15° C., 45% R.H., 120 days) of 4. It also gave an Appearance (15° C., 45% R.H., 360 days) of 6, an Appearance (15° C., 60% R.H., 0 days) of 1 and an Appearance (15° C., 60% R.H., 3 days) of 1. It also gave an Appearance (15° C., 60% R.H., 6 days) of 3, an Appearance (15° C., 60% R.H., 12 days) of 5 and an Appearance (15° C., 60% R.H., 24 days) of 6. For the same molecule, the Appearance (15° C., 60% R.H., 36 days) was 6, the Appearance (15° C., 60% R.H., 48 days) was 6 and the Appearance (25° C., 30% R.H., 0 days) was 1. The Titre of glucosamine (25° C., 30% R.H., 0 days) was 99.6%, the Appearance (25° C., 30% R.H., 7 days) was 1 and the Appearance (25° C., 30% R.H., 15 days) was 1. The Appearance (25° C., 30% R.H., 30 days) was 1, the Appearance (25° C., 30% R.H., 60 days) was 2 and the Appearance (25° C., 30% R.H., 120 days) was 3. For the same molecule, the Appearance (25° C., 30% R.H., 360 days) was 4, the Appearance (25° C., 45% R.H., 0 days) was 1 and the Titre of glucosamine (25° C., 45% R.H., 0 days) was 100.5%. For the same molecule, the Appearance (25° C., 45% R.H., 3 days) was 1, the Appearance (25° C., 45% R.H., 6 days) was 1 and the Appearance (25° C., 45% R.H., 12 days) was 2. For the same molecule, the Appearance (25° C., 45% R.H., 24 days) was 3, the Appearance (25° C., 45% R.H., 36 days) was 5 and the Appearance (25° C., 45% R.H., 48 days) was 6. For the same molecule, the “Time to complete decomposition” value (25° C., 60% R.H.) was 36 h, the Appearance (25° C., 60% R.H., 0 hours) was 1 and the Appearance (25° C., 60% R.H., 2 hours) was 1. It also gave an Appearance (25° C., 60% R.H., 4 hours) of 1, an Appearance (25° C., 60% R.H., 8 hours) of 2 and an Appearance (25° C., 60% R.H., 16 hours) of 3. For the same molecule, the Appearance (25° C., 60% R.H., 24 hours) was 4, the Appearance (25° C., 60% R.H., 36 hours) was 6 and the Titre of glucosamine (solid storage, 24 h) was 44.6%. For the same molecule, the Titre of glucosamine (solid storage, 72 h) was 100.3%, the Titre of glucosamine (solid storage, 576 h) was 74.5% and the Titre of glucosamine (solid storage, 864 h) was 29.6%. For the same molecule, the LD50 at 240 h (Acute toxicity in rats; im, intramuscular) was greater than 3000 mg/kg, the mortality at 240 h (Acute toxicity in rats; [4]) was 0% and the LD50 at 240 h (Acute toxicity in rats; iv, endovenous) was greater than 1500 mg/kg. For the same molecule, the mortality at 240 h (Acute toxicity in rats; [5]) was 0%, the LD50 at 240 h (Acute toxicity in rats; oral) was greater than 5000 mg/kg and the mortality at 240 h (Acute toxicity in rats; oral, max. dose 5000 mg/kg) was 0%. It also gave an activation at 10 µg/mL (mice-embryo fibroblast [2]) of 32.7%, an activation at 50 µg/mL (mice-embryo fibroblast [2]) of 75.6% and an activation at 100 µg/mL (mice-embryo fibroblast [2]) of 94.7%. It also gave an activation at 10 µg/mL (mice-embryo fibroblast [3]) of 24.3%, an activation at 50 µg/mL (mice-embryo fibroblast [3]) of 96% and an activation at 100 µg/mL (mice-embryo fibroblast [3]) of 71.2%. The remaining at 8 h (physchem) was 95.8%, the remaining at 16 h (physchem) was 73.8% and the remaining at 72 h (physchem) was 98.4%. The remaining at 168 h (physchem) was 98.3%, the remaining at 360 h (physchem) was 100% and the remaining at 720 h (physchem) was 99.4%. For the same molecule, the remaining at 1440 h (physchem) was 98.1%.

From patent publication US4642340A, “Stable compounds of glucosamine sulphate” (Rotta Research Laboratorium S.p.A., priority 1981, dated 1987)
